Assays:
salt depleted dogs = experiment: Blood pressure in salt depleted dogs after oral or intravenous administration; type: in vivo
[1] = dog, in vivo, po
Description: The following compositions comprising compound I were prepared and the bioavailability of each composition was determined in fasted dogs.
Dogs (beagle dogs, mixed sexes, weighing about 10 kg) were fasted for at least 12 hours before dosing. Food was returned after the last blood sample was collected (24 hours). Water was available at all times.
A dose equivalent to 50 or 100 milligrams of compound I was administered by mouth to each dog, followed with either 20 or 50 ml of water through a feeding tube.
Blood samples were collected at the following times: 0, 0.5, 1, 2, 3, 4, 6, 8, 12 and 24 hours. Blood samples of 3 ml volume were anti-coagulated with EDTA. The plasma was separated by centrifugation and frozen until analyzed. Blood plasma concentrations of compound I were determined by HPLC.
Bioavailability was calculated as follows: % Bioavailability=[(AUC)oral×D/(AUC) intravenous]×100. (AUC)oral and (AUC) intravenous are the areas under the curve for the plasma concentration-time profiles following oral and intravenous administration, respectively. D is defined as the intravenous vs. oral DOSE ratio. In particular, D=(DOSE)iv/DOSE)oral. The intravenous dose was 3.0 mg/kg and oral dose was about 5.0 mg/kg or about 10.0 mg/kg. The (AUC) intravenous value used corresponds to the mean value from a separate group of 6 dogs.

- times more bioavailable orally as a tablet with organic polycarboxylic acid compared to tablet or powder filled capsule without the acid [1]: ≤ 7.8 times
SMILES: CC(C)C[C@H](O)[C@H](O)[C@H](CC1CCCCC1)NC(=O)[C@H](Cc1cscn1)NC(=O)[C@H](Cc1ccccc1)CS(=O)(=O)N1CCN(C)CC1 [compound I, (2S)-2-Benzyl-3-(1-methyl-piperazin-4-ylsulfonyl)propionyl-(L)-(4-Thiazolyl)Ala Amide of (2S, 3R, 4S)-2-Amino-1-cyclohexyl-3,4-dihydroxy-6-methylheptane]
- effect on blood pressure (salt depleted dogs): reduces blood pressure

From patent US5523289A, “Pharmaceutical composition” (Abbott Laboratories, priority 1993, dated 1996)
